Measured values: the supplement of paper PMC12370961

Columns and labels:
Assay in all cases: differential drug sensitivity score (dDSS) relative to sarcoma reference cohort mean DSS (DSS units (0-100 scale difference)); higher = more selective sensitivity than reference sarcomas
Settings in all cases: exposure time: 72 h; concentration range: 10-10000 nM
[1] = test system: ES-ZH016 (patient-derived Ewing sarcoma tumoroid)
Method: (§1)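 Drug response profiling of patient-derived Ewing sarcoma and CIC::DUX4 sarcoma tumoroid models (or cells tested directly after isolation from the tumor, 'direct'). The DSS is the normalised AUC (0-100); dDSS is the sample DSS minus the mean DSS of a 34-sarcoma reference cohort profiled in the same lab.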

[2] = test system: CDS-ZH003 (patient-derived CIC-DUX4 sarcoma tumoroid)
Method: as §1

[3] = test system: CDS-ZH002 direct (CIC-DUX4 sarcoma cells right after isolation)
Method: as §1

[4] = test system: CDS-ZH001 (patient-derived CIC-DUX4 sarcoma tumoroid)
Method: as §1

[5] = test system: ES-ZH008 (patient-derived Ewing sarcoma tumoroid)
Method: as §1

[6] = test system: CDS-ZH001-2 (patient-derived CIC-DUX4 sarcoma tumoroid)
Method: as §1

[7] = test system: ES-ZH001 (patient-derived Ewing sarcoma tumoroid)
Method: as §1

[8] = test system: ES-ZH007 (patient-derived Ewing sarcoma tumoroid)
Method: as §1

[9] = test system: ES-ZH009 (patient-derived Ewing sarcoma tumoroid)
Method: as §1

[10] = test system: CDS-ZH002 (patient-derived CIC-DUX4 sarcoma tumoroid)
Method: as §1

[11] = test system: ES-ZH016 direct (Ewing sarcoma cells right after isolation)
Method: as §1

[12] = test system: ES-ZH004 (patient-derived Ewing sarcoma tumoroid)
Method: as §1

[13] = test system: ES-ZH002 (patient-derived Ewing sarcoma tumoroid)
Method: as §1

Row | Compound | differential drug sensitivity score [1] | differential drug sensitivity score [2] | differential drug sensitivity score [3] | differential drug sensitivity score [4] | differential drug sensitivity score [5] | differential drug sensitivity score [6] | differential drug sensitivity score [7] | differential drug sensitivity score [8] | differential drug sensitivity score [9] | differential drug sensitivity score [10] | differential drug sensitivity score [11] | differential drug sensitivity score [12] | differential drug sensitivity score [13]
1 | Cc1cnc(Nc2ccc(OCCN3CCCC3)cc2)nc1Nc1cccc(S(=O)(=O)NC(C)(C)C)c1 [Fedratinib] | -1.3 | -2.2 | -3.3 | -0.1 | 1.5 | 0.2 | 1.8 | -1.8 | 3.9 | -1.7 | -0.1 | -3.2 | 5.5
2 | CC(=O)Nc1cccc(-n2c(=O)n(C3CC3)c(=O)c3c(Nc4ccc(I)cc4F)n(C)c(=O)c(C)c32)c1 [Trametinib] | -3.5 | 3.2 | -3.5 | -3.5 | 4.1 | -3.5 | 3.2 | -3.5 | -3.5 | -3.5 | -3.5 | 1.5 | 9.5
3 | CN[C@@H](C)C(=O)N[C@H](C(=O)N1CCC[C@H]1c1nc(C(=O)c2ccc(F)cc2)cs1)C1CCCCC1 [LCL161] | -1.3 | 3.3 | 1 | 11.6 | -0.8 | 4.5 | -1.3 | -0.2 | -1.3 | -1.3 | 0.8 | -0.7 | -1.3
4 | Cc1nn(C)c(COc2ccc(N3CCN(S(=O)(=O)N(C)C)CC3)cc2)c1-c1cccc2c(CCCOc3cccc4ccccc34)c(C(=O)O)n(CCN3CCOCC3)c12 | -0.8 | 0 | -0.8 | 4.4 | -0.8 | -0.8 | -0.8 | -0.8 | -0.8 | -0.8 | -0.8 | -0.8 | -0.4
5 | COC(=O)C[C@](O)(CCCC(C)(C)O)C(=O)O[C@@H]1C(OC)=C[C@]23CCCN2CCc2cc4c(cc2[C@H]13)OCO4 [Homoharringtonine] | 3.1 | 1 | 10 | 10.1 | 13.3 | 10.7 | 3.5 | 10 | 6 | 6.3 | 2.7 | 1.9 | 9.7
6 | CNC(=O)c1cc(Oc2ccc(NC(=O)Nc3ccc(Cl)c(C(F)(F)F)c3)c(F)c2)ccn1 [Regorafenib] | -2 | 2.7 | -0.6 | -2 | -2 | -2 | -2 | -2 | -0.4 | -2 | -2 | 0.8 | -1.1
7 | CC(C)C[C@H](NC(=O)[C@H](CCc1ccccc1)NC(=O)CN1CCOCC1)C(=O)N[C@@H](Cc1ccccc1)C(=O)N[C@@H](CC(C)C)C(=O)[C@@]1(C)CO1 [Carfilzomib] | 4.3 | 4.4 | 5.5 | 5.3 | 4 | 6 | 8.2 | 12.2 | 10.8 | 0.7 | 6.8 | 10.9 | 9.9
8 | CC(C)c1cc(C(=O)N2Cc3ccc(CN4CCN(C)CC4)cc3C2)c(O)cc1O [Onalespib] | -3.1 | -1.5 | -2.7 | -3.5 | 7.7 | 0.4 | 3.6 | -3 | 4.9 | -6.3 | 6.1 | -1.2 | 9.5
9 | Cc1ccc(C(=O)Nc2cccc(C(F)(F)F)c2)cc1Nc1nc(-c2cccnc2)nc2c1cnn2C [BHG712] | -1.6 | -1.6 | -1.6 | -1.6 | 7.1 | -1.6 | -1.1 | -1.6 | -1.6 | -1.6 | -1.6 | 0.6 | 3.8
10 | CO[C@H]1C[C@@H]2CC[C@@H](C)[C@@](O)(O2)C(=O)C(=O)N2CCCC[C@H]2C(=O)O[C@H]([C@H](C)C[C@@H]2CC[C@@H](OCCO)[C@H](OC)C2)CC(=O)[C@H](C)/C=C(\C)[C@@H](O)[C@@H](OC)C(=O)[C@H](C)C[C@H](C)/C=C/C=C/C=C/1C [Everolimus] | -3.5 | -3.3 | -6.4 | -5.3 | 4.8 | -3.9 | 5.3 | 9.6 | 9.3 | -7.4 | -7 | 12 | 13.6
11 | COC1=CC(c2cc3ccccc3[nH]2)=N/C1=C\c1[nH]c(C)cc1C [Obatoclax] | 2.1 | -3 | 4.4 | -3.8 | 4 | -0.2 | -0.7 | 7.5 | 1.5 | -2.4 | 3.3 | 6.9 | 2.9
12 | CNC(=O)c1cc(Oc2ccc(NC(=O)Nc3ccc(Cl)c(C(F)(F)F)c3)cc2)ccn1 [Sorafenib] | -1.2 | -1.8 | -0.3 | -0.5 | -1.2 | -1 | -0.8 | -1.2 | 0.2 | -1.2 | -1.2 | -1.2 | -1.2
13 | CCC(=O)N1CCN(c2ccc(-n3c(=O)ccc4cnc5ccc(-c6cnc7ccccc7c6)cc5c43)cc2C(F)(F)F)CC1 [Torin-1] | -1.2 | 4.4 | -8.4 | 4.9 | 0.8 | 1.9 | -3.5 | -0.5 | 6.3 | -4 | -6.9 | -2.7 | 6.9
14 | COc1cc2nc(N3CCCN(C)CC3)nc(NC3CCN(Cc4ccccc4)CC3)c2cc1OC | -0.1 | 4 | 1.5 | 0.2 | 1.2 | 4 | 0.7 | 7.4 | -0.4 | -1.1 | 3.9 | 6.4 | 0
15 | COc1ncc(-c2ccc3nccc(-c4ccnnc4)c3c2)cc1NS(=O)(=O)c1ccc(F)cc1F [Omipalisib] | 2 | 5.6 | -3.7 | 6.3 | 11.4 | 8.8 | -3.7 | 6.3 | 9 | -4.5 | 2.7 | 0.9 | 12.8
16 | CC(C)C[C@H](NC(=O)[C@@H](NC(=O)c1cccc(-c2ccccc2)n1)[C@@H](C)O)B(O)O [Delanzomib] | 0 | 1.1 | 6.7 | 5.4 | 5.7 | 4.9 | 7.9 | 5.7 | 5.8 | 1.2 | 2.4 | 2.1 | 9.6
17 | Cn1nnc2c(C(N)=O)ncn2c1=O [Temozolomide] | 13.8 | 7.1 | 1.1 | 3.6 | -1.3 | 3.5 | 3.2 | -1.3 | 7 | 1.4 | 14.8 | -1.7 | 2.1
18 | COc1ccc(C(=O)CC2(O)C(=O)Nc3c(Cl)ccc(Cl)c32)cc1 (configuration not stated) [YK-4-279] | 3.1 | -20.3 | -2 | 0.2 | -0.3 | 1.9 | 4.5 | 0 | 3.8 | -3 | 2.9 | -3.2 | 8.2
19 | COc1ccc(-c2ccc3c(N4CCOC[C@@H]4C)nc(N4CCOC[C@@H]4C)nc3n2)cc1CO [AZD8055] | 2 | 8.6 | -2.1 | 1.6 | 7.6 | 0.8 | 0.8 | 4.7 | 9.6 | -10.9 | -8.5 | 4.9 | 12.1
20 | N#CCNC(=O)c1ccc(-c2ccnc(Nc3ccc(N4CCOCC4)cc3)n2)cc1 [Momelotinib] | 2.6 | -1.2 | -1.2 | -1.2 | -0.8 | -1.2 | 4 | -1.2 | 0.5 | -1.2 | -0.5 | -1.2 | 3.7
21 | CC(=O)c1c(C)c2cnc(Nc3ccc(N4CCNCC4)cn3)nc2n(C2CCCC2)c1=O [Palbociclib] | 0 | -1.6 | -0.3 | 6.1 | 5.8 | 10.4 | -2.5 | 6.9 | 2.9 | 1 | -7.7 | 2.4 | 11.4
22 | N#CC[C@H](C1CCCC1)n1cc(-c2ncnc3[nH]ccc23)cn1 [Ruxolitinib] | 1.7 | 1.3 | -0.8 | 0.9 | -0.8 | -0.1 | -0.8 | -0.8 | 4.4 | -0.6 | 2.7 | -0.8 | -0.8
23 | O=C(Nc1c[nH]nc1-c1nc2ccc(CN3CCOCC3)cc2[nH]1)NC1CC1 [AT9283] | 10.8 | -2 | -0.7 | -1.2 | 18.4 | 7 | 24.4 | 6.1 | 24.5 | -3.6 | 14.2 | 4 | 10.8
24 | Cc1cn(-c2cc(NC(=O)c3ccc(C)c(Nc4nccc(-c5cccnc5)n4)c3)cc(C(F)(F)F)c2)cn1 [Nilotinib] | -0.7 | -0.7 | -0.7 | 0.6 | -0.6 | -0.7 | 0.5 | -0.3 | -0.4 | -0.7 | -0.7 | 1.6 | 4.1
25 | O=P1(NCCCl)OCCCN1CCCl (configuration not stated) [Ifosfamide] | -1 | -1 | -1 | -1 | 1.6 | -1 | 0.6 | -1 | -1 | -1 | -1 | 5.5 | 5.4
26 | C[C@@H](Oc1cc(-c2cnn(C3CCNCC3)c2)cnc1N)c1c(Cl)ccc(F)c1Cl [Crizotinib] | 0 | 1.6 | -3.4 | 2.3 | 1.2 | 4.4 | 3.1 | 5.1 | 0.5 | -0.9 | 4 | -1.9 | 7.3
27 | O=c1cc(-c2cccc3c2Sc2ccccc2S3)oc(N2CCOCC2)c1 | -1.3 | -1.3 | 3.7 | 0 | -1.3 | 2.9 | -1.3 | -1.3 | -0.4 | -0.2 | 13.8 | -1.3 | -1.3
28 | Nc1ncn([C@@H]2O[C@H](CO)[C@@H](O)[C@H]2O)c(=O)n1 [Azacitidine] | -1.2 | -1.2 | 0.2 | -0.4 | -1.2 | -0.6 | -1.2 | -1.2 | 0.6 | 0.2 | -1.2 | -1.2 | 4.4
29 | CCc1cncnc1N1CCN(Cc2nc3ccc(C(F)(F)F)cc3[nH]2)CC1 | -3.1 | -0.6 | -2.4 | -3.7 | -3.8 | -3.6 | -0.7 | -1.7 | 3.3 | -1 | -4.2 | -2.8 | -3.9
